Source: patent US8003687B2, “Esters of compounds in the leptomycin family” (Kosan Biosciences Incorporated, priority 2005, dated 2011)
Read-outs that look alike come from different tables or passages of the source.

What was measured:
CCRF-CEM/PTX = assay: inhibition of tumor cell proliferation, CCRF-CEM/PTX; type: cell-based, human; details: read-out: Tumor Cell Line (IC50, nM) CCRF-CEM/PTX
Experimental: (§1) The biological activity of compounds of this invention was evaluated by measuring their inhibitory effect on the proliferation of various tumor cell lines. MCF-7, A549, and SKOV-3 are human breast, lung, and ovary cancer cell lines, respectively. NCI/ADR is a multi-drug resistant breast cancer cell line. CCRF-CEM and CCRF-CEM/PTX are human leukemia cell lines, the latter being a paclitaxel-resistant subline.

NCI/ADR = assay: inhibition of tumor cell proliferation, NCI/ADR; type: cell-based; details: read-out: Tumor Cell Line (IC50, nM) NCI/ADR
Experimental: as §1

SKOV-3 = assay: inhibition of tumor cell proliferation, SKOV-3; type: cell-based, human
Experimental: as §1

CCRF-CEM = assay: inhibition of tumor cell proliferation, CCRF-CEM; type: cell-based, human; details: read-out: Tumor Cell Line (IC50, nM) CCRF-CEM
Experimental: as §1

A549 = assay: inhibition of tumor cell proliferation, A549; type: cell-based, human
Experimental: as §1

MCF-7 = assay: inhibition of tumor cell proliferation, MCF-7; type: cell-based, human
Experimental: as §1

[1] = Homo sapiens, SK-OV-3, read-out: Tumor Cell Line (IC50, nM) SKOV-3
[2] = Homo sapiens, A549, read-out: Tumor Cell Line (IC50, nM) A549
[3] = Homo sapiens, MCF7, read-out: Tumor Cell Line (IC50, nM) MCF-7

LMB methyl ester [Compound 4, reference compound]
IC50 (CCRF-CEM/PTX; human leukemia cell line, paclitaxel-resistant subline): 0.63 nM | IC50 (NCI/ADR; multi-drug resistant breast cancer cell line): 13.1 nM | IC50 (SKOV-3; human ovary cancer cell line, read-out: Tumor Cell Line (IC50, nM) SKOV-3): 8.2 nM | IC50 (CCRF-CEM; human leukemia cell line): 0.55 nM | IC50 (A549; human lung cancer cell line, read-out: Tumor Cell Line (IC50, nM) A549): 2.4 nM | IC50 (MCF-7; human breast cancer cell line, read-out: Tumor Cell Line (IC50, nM) MCF-7): 1.9 nM

CCC(=C/[C@H](C)C/C=C/C(C)=C/[C@@H](C)C(=O)[C@@H](C)[C@H](O)[C@@H](C)C/C(C)=C/C(=O)OCC(=O)OC)/C=C/[C@@H]1OC(=O)C=C[C@@H]1C [Compound 2]
IC50 (CCRF-CEM/PTX; Homo sapiens, CCRF-CEM): 1 nM | IC50 (NCI/ADR; Homo sapiens, NCI/ADR-RES): 5.2 nM | IC50 (SKOV-3; [1]): 5.3 nM | IC50 (CCRF-CEM; Homo sapiens, CCRF-CEM): 1.1 nM | IC50 (A549; [2]): 2.3 nM | IC50 (MCF-7; [3]): 0.33 nM

CCC(=C/[C@H](C)C/C=C/C(C)=C/[C@@H](C)C(=O)[C@@H](C)[C@H](O)[C@@H](C)C/C(C)=C/C(=O)O)/C=C/[C@@H]1OC(=O)C=C[C@@H]1C [LMB, Leptomycin B, reference compound]
IC50 (CCRF-CEM/PTX; CCRF-CEM, human leukemia cell line, paclitaxel-resistant subline): 0.41 nM | IC50 (NCI/ADR; Homo sapiens, NCI/ADR-RES, multi-drug resistant breast cancer cell line): 1 nM | IC50 (SKOV-3; SK-OV-3, human ovary cancer cell line, read-out: Tumor Cell Line (IC50, nM) SKOV-3): 1.5 nM | IC50 (CCRF-CEM; CCRF-CEM, human leukemia cell line): 0.65 nM | IC50 (A549; A549, human lung cancer cell line, read-out: Tumor Cell Line (IC50, nM) A549): 0.3 nM | IC50 (MCF-7; MCF7, human breast cancer cell line, read-out: Tumor Cell Line (IC50, nM) MCF-7): 0.29 nM

CCC(=C/[C@H](C)C/C=C/C(C)=C/[C@@H](C)C(=O)[C@@H](C)[C@H](O)[C@@H](C)C/C(C)=C/C(=O)OCc1cccc2cccnc12)/C=C/[C@@H]1OC(=O)C=C[C@@H]1C [Compound 3]
IC50 (CCRF-CEM/PTX; Homo sapiens, CCRF-CEM): 14 nM | IC50 (NCI/ADR; Homo sapiens, NCI/ADR-RES): 270 nM | IC50 (SKOV-3; [1]): 24 nM | IC50 (CCRF-CEM; Homo sapiens, CCRF-CEM): 5.6 nM | IC50 (A549; [2]): 5.3 nM | IC50 (MCF-7; [3]): 3.7 nM

CCC(=C/[C@H](C)C/C=C/C(C)=C/[C@@H](C)C(=O)[C@@H](C)[C@H](O)[C@@H](C)C/C(C)=C/C(=O)OCc1ccccc1)/C=C/[C@@H]1OC(=O)C=C[C@@H]1C [Compound 1]
IC50 (CCRF-CEM/PTX; Homo sapiens, CCRF-CEM): 4.8 nM | IC50 (NCI/ADR; Homo sapiens, NCI/ADR-RES): 38 nM | IC50 (SKOV-3; [1]): 17 nM | IC50 (CCRF-CEM; Homo sapiens, CCRF-CEM): 2.7 nM | IC50 (A549; [2]): 5.3 nM | IC50 (MCF-7; [3]): 3 nM
